We go through 13 molecules from publication PMC9355146, “Novel angiotensin-converting enzyme inhibitory peptides from tuna byproducts—milts: Preparation, characterization, molecular docking study, and antioxidant function on H2O2-damaged human umbilical vein endothelial cells” (Frontiers in Nutrition, 2022).

In series [1] the test system is H2O2-damaged HUVECs. As to the kind of experiment: GSH-Px level in H2O2-damaged HUVECs. The class given is cell-based, human. The note with it: then H2O2 400 μM for 24 h, mean ± SD, n = 3. The protocol: (§1) The cytoprotective assay was carried out using the described methods ([55], [56]). In short, HUVECs were cultured in a 96-well plate at a density of 1 × 10^4 cells/cm^2 for 24 h. Afterward, the supernatant was aspirated, and 20 μL of ACEi peptides (TP6, TP7, and TP10) with the final concentrations of 100 and 200 μM were added to the protection groups, respectively. […] GSH was used as the positive control.
(§2) The level of ROS was determined on the method described by Cai et al. ([55]) and expressed as % of blank control; the levels of MDA, SOD, and GSH-Px were measured using assay kits in accordance with the manufacturer' protocols and expressed as U/mg prot.

The test system of series [2] is HUVECs. In words: Endothelin-1 (ET-1) secretion in HUVECs. The settings on record: 24 h, mean ± SD, n = 3. The class given is cell-based, human. The protocol: (§3) HUVECs were cultured in 96-well plates at a density of 1 × 10^4 cells/cm^2 and treated with Cap (1 μM), NE (0.5 μM), or ACEi peptides (100–200 μM) for 24 h, or incubated with both NE (0.5 μM) and 200 μM ACEi peptides for 24 h. NO and ET-1 contents of HUVECs were determined after 24 h according to the NO and ET-1 assay kits as manufactures' protocol ([54]).

Series [3] relates to H2O2-damaged HUVECs. As to the kind of experiment: MDA level in H2O2-damaged HUVECs. The series is classed as cell-based, human. The settings on record: then H2O2 400 μM for 24 h, mean ± SD, n = 3. The protocol:
as §1, §2

Series [4] deals with H2O2-damaged HUVECs. The class given is cell-based, human. The protocol:
The cytotoxic assay was carried out as per the previous method ([54]). […] Then, 20 μL MTT solution (5 mg/mL) was put in and incubated for 4 h. In the end, DMSO was joined in each well plate, and the absorbance (A) at 490 nm was determined. Cell viability(%)= (Asample/Acontrol) × 100. The cytoprotective assay was carried out using the described methods ([55], [56]). In short, HUVECs were cultured in a 96-well plate at a density of 1 × 10^4 cells/cm^2 for 24 h. […] GSH was used as the positive control.

In series [5] the test system is HUVECs. In words: Cytotoxic assay (MTT) on HUVECs. The series is classed as cell-based, human. The note with it: 50–200 μM, 24 h. The protocol: The cytotoxic assay was carried out as per the previous method ([54]). HUVECs were cultured at a density of 1 × 10^4 cells/cm^2 to confluence in DMEM at 37°C in a humidified 5% CO2 atmosphere ([8]). The cytotoxicity of TP1–TP10 on HUVECs was measured using MTT assay ([8]). In short, HUVECs in 96-well plates at a density of 1 × 10^4 cells/cm^2 were separately treated with 20 μL samples at 50 and 200 μM, respectively, and cultured for 24 h. Then, 20 μL MTT solution (5 mg/mL) was put in and incubated for 4 h. In the end, DMSO was joined in each well plate, and the absorbance (A) at 490 nm was determined.
Cell viability(%)= (Asample/Acontrol) × 100.

Series [6] deals with H2O2-damaged HUVECs. In words: SOD level in H2O2-damaged HUVECs. The series is classed as cell-based, human. The note with it: then H2O2 400 μM for 24 h, mean ± SD, n = 3. The protocol: as §1, §2
Series [7] has as its system HUVECs. As to the kind of experiment: Nitric oxide (NO) production in HUVECs. The class given is cell-based, human. The settings on record: 24 h, mean ± SD, n = 3. The protocol:
as §3

For series [8], the target named is ACE (Oryctolagus cuniculus, UniProt G1TYT4). The settings on record: cited from earlier work.
ACE, sequence (G1TYT4 1-1284): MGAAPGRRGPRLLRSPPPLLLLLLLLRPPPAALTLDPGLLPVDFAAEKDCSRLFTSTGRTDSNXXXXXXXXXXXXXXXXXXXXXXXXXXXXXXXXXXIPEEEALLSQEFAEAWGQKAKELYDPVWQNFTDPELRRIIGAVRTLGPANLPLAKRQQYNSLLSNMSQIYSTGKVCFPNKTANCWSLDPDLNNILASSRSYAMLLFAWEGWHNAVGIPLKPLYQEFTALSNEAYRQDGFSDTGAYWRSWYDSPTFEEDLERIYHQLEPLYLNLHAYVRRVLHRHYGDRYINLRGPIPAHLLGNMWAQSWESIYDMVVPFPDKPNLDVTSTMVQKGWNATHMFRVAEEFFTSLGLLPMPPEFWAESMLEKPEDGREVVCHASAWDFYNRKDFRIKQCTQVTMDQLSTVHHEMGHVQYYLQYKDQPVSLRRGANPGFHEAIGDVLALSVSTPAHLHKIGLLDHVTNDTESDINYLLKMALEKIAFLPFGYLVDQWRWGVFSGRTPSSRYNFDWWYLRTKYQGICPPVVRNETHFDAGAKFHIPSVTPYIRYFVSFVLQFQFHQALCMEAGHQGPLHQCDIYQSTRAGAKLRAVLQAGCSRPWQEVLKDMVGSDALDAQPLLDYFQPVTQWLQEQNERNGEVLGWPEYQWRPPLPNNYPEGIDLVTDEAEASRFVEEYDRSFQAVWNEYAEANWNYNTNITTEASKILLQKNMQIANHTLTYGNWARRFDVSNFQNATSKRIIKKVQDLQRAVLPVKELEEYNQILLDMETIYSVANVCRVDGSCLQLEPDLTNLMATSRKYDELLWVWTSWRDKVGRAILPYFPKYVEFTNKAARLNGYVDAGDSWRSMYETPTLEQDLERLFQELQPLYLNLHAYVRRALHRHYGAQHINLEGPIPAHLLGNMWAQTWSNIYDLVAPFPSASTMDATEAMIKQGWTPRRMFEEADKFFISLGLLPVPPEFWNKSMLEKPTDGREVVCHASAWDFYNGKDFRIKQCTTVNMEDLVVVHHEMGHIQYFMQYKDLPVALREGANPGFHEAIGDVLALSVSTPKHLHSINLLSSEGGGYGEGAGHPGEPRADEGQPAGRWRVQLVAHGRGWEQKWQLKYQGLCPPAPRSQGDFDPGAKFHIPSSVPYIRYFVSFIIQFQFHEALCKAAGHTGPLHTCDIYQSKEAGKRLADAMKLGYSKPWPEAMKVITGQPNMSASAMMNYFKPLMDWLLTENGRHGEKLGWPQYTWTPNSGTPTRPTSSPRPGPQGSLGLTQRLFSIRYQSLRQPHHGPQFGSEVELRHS
Series [9] addresses T1, Angiotensin-converting enzyme (ACE) (UniProt P12822).
T1 sequence: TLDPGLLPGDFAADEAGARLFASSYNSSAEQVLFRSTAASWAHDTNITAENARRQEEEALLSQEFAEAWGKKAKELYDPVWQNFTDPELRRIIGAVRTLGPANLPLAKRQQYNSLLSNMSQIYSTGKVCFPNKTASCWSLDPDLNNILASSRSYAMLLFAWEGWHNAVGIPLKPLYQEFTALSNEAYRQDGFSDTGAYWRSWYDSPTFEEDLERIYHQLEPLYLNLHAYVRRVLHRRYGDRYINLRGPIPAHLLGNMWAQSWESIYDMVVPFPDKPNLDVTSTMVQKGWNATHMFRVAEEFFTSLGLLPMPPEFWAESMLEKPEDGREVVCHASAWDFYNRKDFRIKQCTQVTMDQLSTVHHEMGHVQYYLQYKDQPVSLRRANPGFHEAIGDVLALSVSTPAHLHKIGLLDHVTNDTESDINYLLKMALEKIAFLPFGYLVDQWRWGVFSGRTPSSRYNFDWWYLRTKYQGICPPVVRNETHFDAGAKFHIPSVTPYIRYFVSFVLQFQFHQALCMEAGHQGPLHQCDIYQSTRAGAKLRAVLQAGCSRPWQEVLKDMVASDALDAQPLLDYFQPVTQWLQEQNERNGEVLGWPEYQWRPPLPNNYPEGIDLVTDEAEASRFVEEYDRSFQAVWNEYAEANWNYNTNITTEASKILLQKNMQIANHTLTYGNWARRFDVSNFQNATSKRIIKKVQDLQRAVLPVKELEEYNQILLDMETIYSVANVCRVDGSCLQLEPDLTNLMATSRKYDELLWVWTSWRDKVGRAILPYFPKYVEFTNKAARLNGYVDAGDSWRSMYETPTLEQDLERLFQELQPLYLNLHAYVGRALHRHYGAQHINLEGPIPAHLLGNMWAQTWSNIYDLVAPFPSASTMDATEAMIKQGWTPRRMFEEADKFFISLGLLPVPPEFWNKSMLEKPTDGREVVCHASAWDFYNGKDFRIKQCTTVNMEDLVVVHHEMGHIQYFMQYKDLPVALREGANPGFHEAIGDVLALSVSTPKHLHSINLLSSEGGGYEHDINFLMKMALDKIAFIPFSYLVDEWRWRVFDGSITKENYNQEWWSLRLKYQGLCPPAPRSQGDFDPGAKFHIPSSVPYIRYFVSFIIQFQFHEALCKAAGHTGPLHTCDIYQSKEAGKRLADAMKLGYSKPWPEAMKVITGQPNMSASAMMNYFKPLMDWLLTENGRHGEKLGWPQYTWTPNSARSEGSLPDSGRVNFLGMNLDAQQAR

The mark [10] stands for this setting: NE 0.5 μM together with peptide 200 μM.

Where two headings read alike, the source gives them in different places. Where a SMILES comes first, the peptide text is derived from it.

On to `CC(C)C[C@H](N)C(=O)N[C@@H](CO)C(=O)N[C@@H](Cc1ccccc1)C(=O)N[C@@H](CCCNC(=N)N)C(=O)O` [TP7, Leu-Ser-Phe-Arg] (H-LSFR-OH), for which the GSH-Px level in [1] (peptide 100 μM for 8 h) is on record as 35.61 ± 1.23 U/mg prot; in series [1] (peptide 200 μM for 8 h), 40.93 ± 2.15 U/mg prot. For the same molecule, the ET-1 level is 110.36 ± 1.76 pg/mL in [2] (setting [10]) and 101.49 ± 2.05 pg/mL in [2] (peptide 200 μM). Besides, the MDA level in [3] (peptide 200 μM for 8 h) worked out at 20.68 ± 1.06 nmol/mg prot. Also, in [4] (8 h, 200 μM), the “cell viability of H2O2-damaged HUVECs” value was found to be 59.15 ± 2.81%. Moreover, in [5], the “toxicity to HUVECs (in words)” value is reported as “no significant toxicity”. Further, the SOD level in series [6] (peptide 100 μM for 8 h) was found to be 141.79 ± 3.96 U/mg prot; in [6] (peptide 200 μM for 8 h), 158.79 ± 5.93 U/mg prot. Moreover, the NO level in series [7] (setting [10]) is recorded as 35.18 ± 1.2 μmol/gprot; in series [7] (peptide 200 μM) it was 45.91 ± 1.68 μmol/gprot.
For `CC[C@H](C)[C@H](N)C(=O)N[C@@H](CS)C(=O)N[C@@H](Cc1ccc(O)cc1)C(=O)O` [TP6, Ile-Cys-Tyr] (H-Ile-Cys-Tyr-OH), the GSH-Px level is recorded as 42.69 ± 1.32 U/mg prot in series [1] (peptide 100 μM for 8 h) and 51.28 ± 3.16 U/mg prot in series [1] (peptide 200 μM for 8 h). In addition, the figures for the ET-1 level in series [2] (setting [10]) and in series [2] (peptide 200 μM) were 105.18 ± 3.29 pg/mL and 92.57 ± 2.68 pg/mL, respectively. Moreover, in series [3] (peptide 200 μM for 8 h), the MDA level is on record as 17.08 ± 0.96 nmol/mg prot. Further, the “cell viability of H2O2-damaged HUVECs” value in [4] (8 h, 200 μM) stood at 69.76 ± 3.06%. For the same molecule, the SOD level in [6] (peptide 100 μM for 8 h) came out at 168.77 ± 5.32 U/mg prot; in series [6] (peptide 200 μM for 8 h), 184.06 ± 7.19 U/mg prot. The NO level was 42.21 ± 2.66 μmol/gprot in series [7] (setting [10]) and 50.63 ± 1.95 μmol/gprot in series [7] (peptide 200 μM).
Regarding MLVFAV, the “IC50 on ACE” value in series [8] (ACEi peptide from Katsuwonus pelamis) is recorded as 2.36 mg/mL.
As to `NC[C@H](O)c1ccc(O)c(O)c1` [NE, Norepinephrine, reference compound], the ET-1 secretion in series [2] (NE 0.5 μM alone) is listed as 148.35 ± 3.87 pg/mL. The molecule further returned an NO level in series [7] (NE 0.5 μM alone) of 22.91 ± 1.26 μmol/gprot.
As for LGPLGHQ, the “IC50 on ACE” value in series [8] (ACEi peptide from skate) is 4.22 mg/mL.
Turning to `OO` [H2O2], in series [4] (H2O2 400 μM alone, 24 h (oxidative damage model), mean ± SD, n = 3), the “cell viability of HUVECs (% of the blank group)” value came out at 50.48 ± 1.96%.
EHPVL: in series [8] (ACEi peptide from stone fish), the “IC50 on ACE” value is 1.68 mg/mL.
TP6, Ile-Cys-Tyr (ICY) (peptide) had an ACEi activity (IC50): inhibition of ACE hydrolysis of FAPGG, absorbance at 340 nm, 37°C, pH 8.3 in series [9] of 0.48 mg/mL.
As for `CC[C@H](C)[C@H](N)C(=O)N[C@@H](Cc1ccc(O)cc1)C(=O)N[C@@H](CO)C(=O)N1CCC[C@H]1C(=O)O` [TP10, Ile-Tyr-Ser-Pro] (H-IYSP-OH), the GSH-Px level is reported as 38.91 ± 1.17 U/mg prot in [1] (peptide 100 μM for 8 h) and 44.69 ± 2.09 U/mg prot in [1] (peptide 200 μM for 8 h). In addition, the ET-1 level is 109.12 ± 2.95 pg/mL in series [2] (setting [10]) and 96.15 ± 1.35 pg/mL in [2] (peptide 200 μM). This molecule also came in with an MDA level in series [3] (peptide 200 μM for 8 h) of 19.11 ± 0.88 nmol/mg prot. Besides, the “cell viability of H2O2-damaged HUVECs” value in series [4] (8 h, 200 μM) is 61.58 ± 3.04%. Also, the “toxicity to HUVECs (in words)” value in series [5] is recorded as “no significant toxicity”. For the same molecule, the values for the SOD level in [6] (peptide 100 μM for 8 h) and in [6] (peptide 200 μM for 8 h) were 154.35 ± 3.68 U/mg prot and 172.93 ± 6.58 U/mg prot, respectively. Moreover, the results for the NO level in [7] (setting [10]) and in series [7] (peptide 200 μM) were 39.27 ± 1.96 μmol/gprot and 46.78 ± 2.47 μmol/gprot, respectively.
The molecule `N[C@@H](CCC(=O)N[C@@H](CS)C(=O)NCC(=O)O)C(=O)O` [GSH, glutathione, reference compound] displayed an MDA level in series [3] (GSH positive control (concentration not given)) of 15.28 ± 0.61 nmol/mg prot. The “cell viability of H2O2-damaged HUVECs” value in [4] (GSH positive control (concentration not given), then H2O2 400 μM for 24 h, mean ± SD, n = 3) was found to be 75.69 ± 3.52%.
For FRKE, the “IC50 on ACE” value in [8] (ACEi peptides from Antarctic krill) was 6.97 mg/mL.

B1: TP7, Leu-Ser-Phe-Arg (LSFR) (peptide)
peptide: LSFR
For B1, the ACEi activity (IC50): inhibition of ACE hydrolysis of FAPGG, absorbance at 340 nm, 37°C, pH 8.3 in series [9] amounted to 0.59 mg/mL.

B2: TP10, Ile-Tyr-Ser-Pro (IYSP) (peptide)
peptide: IYSP
With B2, the ACEi activity (IC50): inhibition of ACE hydrolysis of FAPGG, absorbance at 340 nm, 37°C, pH 8.3 in series [9] came out at 0.76 mg/mL.
